From ChEMBL document CHEMBL1938230, “6-Position optimization of tricyclic 4-quinolone-based inhibitors of glycogen synthase kinase-3β: discovery of nitrile derivatives with picomolar potency” (Bioorg Med Chem Lett, 2012)

How the values were obtained:
[1] = molecular target: PI4KA/PI4KAP2 (Homo sapiens) (UniProt P42356+A4QPH2); experiment: Inhibition of human PI4KA/PI4KAP2 in HL-60 cells lysate assessed as reduction of labeling of acyl-phosphate ATP probe at 100 nM; format: cell-free
[2] = molecular target: Phosphatidylinositol 4,5-bisphosphate 3-kinase catalytic subunit gamma isoform (Homo sapiens) (UniProt P48736); experiment: Inhibition of human PIK3CG in HL-60 cells lysate assessed as reduction of labeling of acyl-phosphate ATP probe at 100 nM; format: cell-free
[3] = molecular target: T1, Phosphatidylinositol 5-phosphate 4-kinase type-2 gamma (Homo sapiens) (UniProt Q8TBX8); experiment: Inhibition of human PIP4K2C in HL-60 cells lysate assessed as reduction of labeling of acyl-phosphate ATP probe at 100 nM; format: cell-free
T1 sequence (whole entry): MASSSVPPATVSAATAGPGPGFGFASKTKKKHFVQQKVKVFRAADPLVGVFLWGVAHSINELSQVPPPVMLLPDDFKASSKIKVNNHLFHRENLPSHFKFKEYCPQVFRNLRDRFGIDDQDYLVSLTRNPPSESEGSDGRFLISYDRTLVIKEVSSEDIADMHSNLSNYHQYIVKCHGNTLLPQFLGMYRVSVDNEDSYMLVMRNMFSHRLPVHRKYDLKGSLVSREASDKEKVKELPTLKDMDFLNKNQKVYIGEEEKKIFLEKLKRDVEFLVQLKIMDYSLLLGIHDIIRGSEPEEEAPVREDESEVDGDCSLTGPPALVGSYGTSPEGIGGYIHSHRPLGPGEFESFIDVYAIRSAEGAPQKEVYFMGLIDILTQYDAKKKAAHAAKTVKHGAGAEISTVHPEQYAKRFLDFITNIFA

[4] = molecular target: T2, Inhibitor of nuclear factor kappa-B kinase subunit epsilon (Homo sapiens) (UniProt Q14164); experiment: Inhibition of human IKKepsilon in HL-60 cells lysate assessed as reduction of labeling of acyl-phosphate ATP probe at 100 nM; format: cell-free
T2 sequence (whole entry): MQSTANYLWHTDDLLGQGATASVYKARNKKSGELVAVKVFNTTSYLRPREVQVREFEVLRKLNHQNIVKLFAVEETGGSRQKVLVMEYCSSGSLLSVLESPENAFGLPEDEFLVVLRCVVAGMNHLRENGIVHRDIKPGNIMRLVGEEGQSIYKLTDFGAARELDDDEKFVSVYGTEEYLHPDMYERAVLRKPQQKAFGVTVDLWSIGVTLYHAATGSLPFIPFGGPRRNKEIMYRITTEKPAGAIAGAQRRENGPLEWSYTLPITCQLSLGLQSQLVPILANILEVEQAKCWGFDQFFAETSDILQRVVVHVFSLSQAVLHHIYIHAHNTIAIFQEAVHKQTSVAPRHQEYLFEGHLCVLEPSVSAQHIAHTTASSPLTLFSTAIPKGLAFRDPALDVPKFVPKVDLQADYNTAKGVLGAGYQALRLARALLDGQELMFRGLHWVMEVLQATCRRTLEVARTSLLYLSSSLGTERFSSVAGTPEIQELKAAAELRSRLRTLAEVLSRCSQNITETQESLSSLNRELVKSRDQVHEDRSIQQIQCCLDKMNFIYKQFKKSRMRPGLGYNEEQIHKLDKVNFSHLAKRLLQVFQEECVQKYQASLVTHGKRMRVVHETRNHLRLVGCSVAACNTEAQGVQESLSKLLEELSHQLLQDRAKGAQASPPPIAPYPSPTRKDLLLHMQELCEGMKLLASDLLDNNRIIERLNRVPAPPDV

[5] = molecular target: Serine/threonine-protein kinase/endoribonuclease IRE1 (Homo sapiens) (UniProt O75460); experiment: Inhibition of human IRE1 in HL-60 cells lysate assessed as reduction of labeling of acyl-phosphate ATP probe at 100 nM; format: cell-free
Chain of Serine/threonine-protein kinase/endoribonuclease IRE1 (Homo sapiens) (O75460 19-977 limits assumed): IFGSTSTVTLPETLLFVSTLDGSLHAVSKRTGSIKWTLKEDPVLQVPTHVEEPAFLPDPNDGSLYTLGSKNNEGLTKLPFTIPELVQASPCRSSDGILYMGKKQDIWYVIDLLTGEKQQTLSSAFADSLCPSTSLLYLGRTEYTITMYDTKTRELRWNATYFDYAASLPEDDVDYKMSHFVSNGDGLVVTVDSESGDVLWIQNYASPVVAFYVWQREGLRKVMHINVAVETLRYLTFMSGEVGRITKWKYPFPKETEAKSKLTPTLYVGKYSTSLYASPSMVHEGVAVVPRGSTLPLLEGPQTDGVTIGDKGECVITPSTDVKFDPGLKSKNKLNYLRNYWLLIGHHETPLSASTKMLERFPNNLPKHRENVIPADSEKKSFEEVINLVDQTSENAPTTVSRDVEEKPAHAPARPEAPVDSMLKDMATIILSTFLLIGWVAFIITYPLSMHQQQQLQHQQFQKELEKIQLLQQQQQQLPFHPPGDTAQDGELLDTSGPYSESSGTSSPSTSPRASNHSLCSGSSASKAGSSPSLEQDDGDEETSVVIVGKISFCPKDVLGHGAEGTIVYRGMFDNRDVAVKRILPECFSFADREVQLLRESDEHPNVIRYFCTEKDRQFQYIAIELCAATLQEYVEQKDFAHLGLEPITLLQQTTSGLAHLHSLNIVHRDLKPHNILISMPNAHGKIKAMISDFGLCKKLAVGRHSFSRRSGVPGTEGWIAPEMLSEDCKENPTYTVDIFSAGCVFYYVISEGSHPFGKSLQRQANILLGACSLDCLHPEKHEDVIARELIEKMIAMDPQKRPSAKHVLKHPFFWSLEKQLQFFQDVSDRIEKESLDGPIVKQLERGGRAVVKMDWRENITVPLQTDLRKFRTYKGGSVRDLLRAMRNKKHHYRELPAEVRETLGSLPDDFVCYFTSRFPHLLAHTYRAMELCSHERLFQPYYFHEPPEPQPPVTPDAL

[6] = molecular target: Mitogen-activated protein kinase kinase kinase 1 (Homo sapiens) (UniProt Q13233); experiment: Inhibition of human MAP3K1 in HL-60 cells lysate assessed as reduction of labeling of acyl-phosphate ATP probe at 100 nM; format: cell-free
Chain of Mitogen-activated protein kinase kinase kinase 1 (Homo sapiens) (Q13233 whole entry): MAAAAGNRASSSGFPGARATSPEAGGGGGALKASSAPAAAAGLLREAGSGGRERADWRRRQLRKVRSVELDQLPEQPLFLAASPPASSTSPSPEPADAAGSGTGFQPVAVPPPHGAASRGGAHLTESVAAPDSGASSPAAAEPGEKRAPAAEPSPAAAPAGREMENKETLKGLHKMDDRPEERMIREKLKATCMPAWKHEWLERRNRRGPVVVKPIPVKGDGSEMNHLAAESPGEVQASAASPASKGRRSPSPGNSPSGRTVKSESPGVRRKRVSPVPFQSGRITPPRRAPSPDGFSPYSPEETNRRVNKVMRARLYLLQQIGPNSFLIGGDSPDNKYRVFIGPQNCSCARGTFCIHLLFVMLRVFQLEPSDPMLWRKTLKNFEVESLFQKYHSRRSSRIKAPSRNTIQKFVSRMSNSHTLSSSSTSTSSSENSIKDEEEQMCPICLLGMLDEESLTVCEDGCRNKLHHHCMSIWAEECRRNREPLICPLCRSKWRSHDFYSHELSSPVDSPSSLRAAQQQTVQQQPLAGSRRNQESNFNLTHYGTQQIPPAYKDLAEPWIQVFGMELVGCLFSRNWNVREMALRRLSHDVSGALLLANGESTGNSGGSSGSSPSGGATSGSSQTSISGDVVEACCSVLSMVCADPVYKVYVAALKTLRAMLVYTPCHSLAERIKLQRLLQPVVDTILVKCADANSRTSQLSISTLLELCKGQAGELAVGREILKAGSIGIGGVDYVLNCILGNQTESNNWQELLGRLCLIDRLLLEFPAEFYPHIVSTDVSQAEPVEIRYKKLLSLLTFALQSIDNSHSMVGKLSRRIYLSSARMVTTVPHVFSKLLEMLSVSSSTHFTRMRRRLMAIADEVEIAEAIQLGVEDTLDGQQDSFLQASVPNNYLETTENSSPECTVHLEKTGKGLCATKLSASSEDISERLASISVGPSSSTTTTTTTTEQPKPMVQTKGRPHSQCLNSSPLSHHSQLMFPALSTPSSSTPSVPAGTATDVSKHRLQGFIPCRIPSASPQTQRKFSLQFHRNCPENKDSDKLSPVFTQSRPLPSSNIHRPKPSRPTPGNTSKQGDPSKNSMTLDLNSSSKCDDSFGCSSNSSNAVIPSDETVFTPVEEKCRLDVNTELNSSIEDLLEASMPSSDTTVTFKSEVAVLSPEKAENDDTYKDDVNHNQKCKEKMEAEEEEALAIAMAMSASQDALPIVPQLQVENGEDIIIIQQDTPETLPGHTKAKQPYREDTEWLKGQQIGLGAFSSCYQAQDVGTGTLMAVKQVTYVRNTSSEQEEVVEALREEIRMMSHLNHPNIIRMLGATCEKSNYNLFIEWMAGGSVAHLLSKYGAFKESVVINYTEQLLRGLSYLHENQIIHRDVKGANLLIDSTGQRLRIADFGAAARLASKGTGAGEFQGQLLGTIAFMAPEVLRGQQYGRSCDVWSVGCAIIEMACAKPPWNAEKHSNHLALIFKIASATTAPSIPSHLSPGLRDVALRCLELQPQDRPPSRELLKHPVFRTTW

HL-60 [7] = experiment: Inhibition of human ACK in HL-60 cells lysate assessed as reduction of labeling of acyl-phosphate ATP probe at 100 nM
HL-60 [8] = experiment: Inhibition of human FYN/SRC/YES in HL-60 cells lysate assessed as reduction of labeling of acyl-phosphate ATP probe at 100 nM
[9] = molecular target: Tyrosine-protein kinase HCK (Homo sapiens) (UniProt P08631); experiment: Inhibition of human HCK in HL-60 cells lysate assessed as reduction of labeling of acyl-phosphate ATP probe at 100 nM; format: cell-free
Chain of Tyrosine-protein kinase HCK (Homo sapiens) (P08631 2-526 limits assumed): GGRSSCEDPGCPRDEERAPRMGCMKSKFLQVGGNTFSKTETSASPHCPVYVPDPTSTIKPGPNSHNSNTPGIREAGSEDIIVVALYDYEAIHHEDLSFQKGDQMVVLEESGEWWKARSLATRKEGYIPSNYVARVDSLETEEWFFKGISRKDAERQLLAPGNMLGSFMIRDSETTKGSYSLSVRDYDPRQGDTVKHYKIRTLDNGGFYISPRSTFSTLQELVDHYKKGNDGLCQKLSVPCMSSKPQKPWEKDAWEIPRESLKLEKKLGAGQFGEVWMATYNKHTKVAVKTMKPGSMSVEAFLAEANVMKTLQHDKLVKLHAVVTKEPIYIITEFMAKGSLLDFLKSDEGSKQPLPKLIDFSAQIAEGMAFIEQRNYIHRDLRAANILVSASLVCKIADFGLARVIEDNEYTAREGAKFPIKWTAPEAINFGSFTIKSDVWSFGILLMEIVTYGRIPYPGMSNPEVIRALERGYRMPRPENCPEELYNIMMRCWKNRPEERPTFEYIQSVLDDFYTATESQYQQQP

[10] = molecular target: Serine/threonine-protein kinase B-raf (Homo sapiens) (UniProt P15056); experiment: Inhibition of human BRAF in HL-60 cells lysate assessed as reduction of labeling of acyl-phosphate ATP probe at 100 nM; format: cell-free
Chain of Serine/threonine-protein kinase B-raf (Homo sapiens) (P15056 whole entry): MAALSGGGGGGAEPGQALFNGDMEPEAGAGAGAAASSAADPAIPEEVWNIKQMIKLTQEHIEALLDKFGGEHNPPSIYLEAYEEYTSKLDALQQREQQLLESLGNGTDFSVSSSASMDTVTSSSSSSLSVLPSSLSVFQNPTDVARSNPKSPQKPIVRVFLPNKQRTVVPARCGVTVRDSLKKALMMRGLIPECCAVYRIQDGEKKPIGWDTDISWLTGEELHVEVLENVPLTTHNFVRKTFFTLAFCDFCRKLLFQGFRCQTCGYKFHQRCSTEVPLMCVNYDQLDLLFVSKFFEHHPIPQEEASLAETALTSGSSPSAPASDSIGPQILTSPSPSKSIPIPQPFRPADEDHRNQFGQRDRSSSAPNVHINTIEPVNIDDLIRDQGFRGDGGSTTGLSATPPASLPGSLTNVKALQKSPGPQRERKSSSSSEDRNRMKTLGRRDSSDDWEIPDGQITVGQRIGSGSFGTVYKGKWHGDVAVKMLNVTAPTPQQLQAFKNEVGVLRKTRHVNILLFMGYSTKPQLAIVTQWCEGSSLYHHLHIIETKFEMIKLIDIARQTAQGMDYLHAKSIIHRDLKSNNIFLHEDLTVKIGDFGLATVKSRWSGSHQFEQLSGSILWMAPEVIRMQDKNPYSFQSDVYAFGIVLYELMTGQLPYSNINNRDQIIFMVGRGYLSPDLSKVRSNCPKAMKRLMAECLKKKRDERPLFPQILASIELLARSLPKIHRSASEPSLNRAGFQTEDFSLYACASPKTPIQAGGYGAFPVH

[11] = molecular target: Mitogen-activated protein kinase kinase kinase 11 (Homo sapiens) (UniProt Q16584); experiment: Inhibition of human MLK3 in HL-60 cells lysate assessed as reduction of labeling of acyl-phosphate ATP probe at 100 nM; format: cell-free
[12] = molecular target: Mitogen-activated protein kinase kinase kinase 20 (Homo sapiens) (UniProt Q9NYL2); experiment: Inhibition of human ZAK in HL-60 cells lysate assessed as reduction of labeling of acyl-phosphate ATP probe at 100 nM; format: cell-free
Chain of Mitogen-activated protein kinase kinase kinase 20 (Homo sapiens) (Q9NYL2 2-800 limits assumed): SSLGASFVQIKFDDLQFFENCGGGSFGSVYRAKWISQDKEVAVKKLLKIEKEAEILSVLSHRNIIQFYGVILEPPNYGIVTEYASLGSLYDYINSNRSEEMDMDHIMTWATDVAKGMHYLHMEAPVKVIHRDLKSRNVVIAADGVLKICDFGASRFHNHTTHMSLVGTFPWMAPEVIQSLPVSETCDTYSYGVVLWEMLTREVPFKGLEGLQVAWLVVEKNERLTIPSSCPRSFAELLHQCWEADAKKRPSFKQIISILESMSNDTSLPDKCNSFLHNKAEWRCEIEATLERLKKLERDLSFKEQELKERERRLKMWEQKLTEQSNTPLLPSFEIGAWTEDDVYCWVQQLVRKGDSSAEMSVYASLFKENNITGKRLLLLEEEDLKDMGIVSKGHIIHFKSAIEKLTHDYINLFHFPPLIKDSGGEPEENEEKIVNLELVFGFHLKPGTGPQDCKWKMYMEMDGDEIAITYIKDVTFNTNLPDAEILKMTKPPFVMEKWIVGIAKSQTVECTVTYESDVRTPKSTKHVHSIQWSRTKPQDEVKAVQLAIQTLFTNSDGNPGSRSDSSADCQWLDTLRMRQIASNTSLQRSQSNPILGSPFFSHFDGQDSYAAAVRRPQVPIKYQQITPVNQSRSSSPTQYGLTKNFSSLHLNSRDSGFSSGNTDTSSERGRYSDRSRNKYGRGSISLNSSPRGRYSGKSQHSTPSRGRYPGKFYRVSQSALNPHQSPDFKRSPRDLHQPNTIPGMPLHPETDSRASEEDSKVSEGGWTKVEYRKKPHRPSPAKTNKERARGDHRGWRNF

| inhibition [1] [%] | inhibition [2] [%] | inhibition [3] [%] | inhibition [4] [%] | inhibition [5] [%] | inhibition [6] [%] | inhibition [9] [%] | inhibition [10] [%] | inhibition [11] [%] | inhibition [12] [%] | SMILES | inhibition at 0.1 µM (HL-60 [7]) [%] | inhibition at 0.1 µM (HL-60 [8]) [%] |
| --- | --- | --- | --- | --- | --- | --- | --- | --- | --- | --- | --- | --- |
| < 35 | < 35 | < 35 | < 35 | < 35 | < 35 | < 35 | < 35 | < 35 | < 35 | C[C@H]1COc2c(NCCCc3ccccn3)c(F)c(N)c3c(=O)c(C#N)cn1c23 | < 35 | < 35 |
| < 35 | < 35 | < 35 | < 35 | < 35 | < 35 | < 35 | < 35 | < 35 | < 35 | C[C@H]1COc2c(NCCCn3cccn3)c(F)c(N)c3c(=O)c(C(=O)O)cn1c23 | < 35 | < 35 |
| < 35 | < 35 | < 35 | < 35 | < 35 | < 35 | < 35 | < 35 | < 35 | < 35 | C[C@H]1COc2c(NCCCn3cccn3)c(F)c(N)c3c(=O)c(C#N)cn1c23 | < 35 | < 35 |
| < 35 | < 35 | < 35 | < 35 | < 35 | < 35 | < 35 | < 35 | < 35 | < 35 | C[C@H]1COc2c(NCCCc3ccccn3)c(F)c(N)c3c(=O)c(C(=O)O)cn1c23 | < 35 | < 35 |
